Experimental data published in patent US12391683B2, “Therapeutic compounds and methods” (Actio Biosciences, Inc., priority 2022, dated 2025).

Tests used:
TRPC4 channels = molecular target: T1, TRPC4 channels (Homo sapiens, UniProt Q9UBN4); assay: TRP Family FLIPR Assay, TRPC4; assay type: cell-based; conditions: HEK293 cells
T1 construct: expressed in transfected cells; host or cells: HEK293
T1 sequence (Q9UBN4 1-977): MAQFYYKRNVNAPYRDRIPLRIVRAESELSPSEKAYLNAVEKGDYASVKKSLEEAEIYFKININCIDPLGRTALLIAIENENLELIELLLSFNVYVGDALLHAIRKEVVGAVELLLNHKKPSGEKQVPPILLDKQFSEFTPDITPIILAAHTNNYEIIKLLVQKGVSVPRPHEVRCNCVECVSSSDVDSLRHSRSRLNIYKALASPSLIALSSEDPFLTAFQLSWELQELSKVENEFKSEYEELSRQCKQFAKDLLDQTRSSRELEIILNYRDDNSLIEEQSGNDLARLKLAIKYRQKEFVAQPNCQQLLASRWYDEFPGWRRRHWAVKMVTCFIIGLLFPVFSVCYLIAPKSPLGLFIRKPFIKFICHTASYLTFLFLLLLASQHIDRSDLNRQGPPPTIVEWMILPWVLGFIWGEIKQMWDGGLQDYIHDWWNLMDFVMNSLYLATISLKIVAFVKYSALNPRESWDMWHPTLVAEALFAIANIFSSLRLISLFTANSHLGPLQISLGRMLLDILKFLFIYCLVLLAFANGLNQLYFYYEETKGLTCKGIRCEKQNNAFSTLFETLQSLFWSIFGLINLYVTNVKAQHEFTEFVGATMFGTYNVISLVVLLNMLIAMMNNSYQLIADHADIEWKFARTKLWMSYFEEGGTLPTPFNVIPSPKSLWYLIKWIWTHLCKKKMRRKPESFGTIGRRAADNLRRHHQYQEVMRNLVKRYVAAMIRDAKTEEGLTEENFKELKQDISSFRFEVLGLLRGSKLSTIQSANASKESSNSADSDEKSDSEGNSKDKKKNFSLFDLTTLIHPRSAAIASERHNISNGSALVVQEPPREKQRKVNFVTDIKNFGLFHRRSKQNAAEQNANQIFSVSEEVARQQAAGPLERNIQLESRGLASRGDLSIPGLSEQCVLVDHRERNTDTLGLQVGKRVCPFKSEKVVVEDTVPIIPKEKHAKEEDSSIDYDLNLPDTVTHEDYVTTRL
Method: (§1) The compound of Example 5 was tested for selectivity against a panel of Human TRP family ion channels in a TRP Family FLIPR Assay as described below. • 1. TRPC3 channels (human TRPC3 variant 1 gene, expressed in HEK293 cells). • 2. TRPC4 channels (human TRPC4 gene, expressed in HEK293 cells). • 3. TRPC5 channels (human TRPC5 gene, expressed in HEK293 cells). • 4. TRPC6 channels (human TRPC6 gene, expressed in HEK293 cells). • 5. TRPM2 channels (human TRPM2 gene, transiently expressed in HEK293 cells). • 6. TRPM3 channels (human TRPM3 gene, transiently expressed in HEK293 cells). • 7. TRPM4 channels (human TRPM4 gene, expressed in CHO cells). • 8. […]
(§2) Data acquisition was performed via the FLIPR Control software supplied with the FLIPR System (MDS-AT) and data was analyzed using Microsoft Excel (Microsoft Corp., Redmond, WA) or GraphPad Prism. […]
(§3) [formula] where Base is the response at low concentrations of test article, Max is the maximum response at high concentrations, xhalf the EC50, or IC50, the concentration of test article producing either half-maximal activation or inhibition, and rate is the Hill coefficient. […] No assumptions about the fit parameters was made; the fit parameters were determined by the algorithm.
(§4) The effect of each test article was evaluated at eight (8) concentrations: 0.003, 0.01, 0.03, 0.1, 0.3, 1, 3 and 10 μM, n≤4 wells/concentration). […]

TRPM3 channels = molecular target: T2, TRPM3 channels (Homo sapiens, UniProt Q9HCF6); assay: TRP Family FLIPR Assay, TRPM3; assay type: cell-based; conditions: HEK293 cells (transient)
T2 construct: expressed in transfected cells; host or cells: HEK293 (transient)
Method: as §1, §2, §3, §4

TRPV5 channels = molecular target: T3, TRPV5 channels (Homo sapiens, UniProt Q9NQA5); assay: TRP Family FLIPR Assay, TRPV5; assay type: cell-based; conditions: antagonist mode; activated with 60 μM cadmium ion; HEK293 cells (transient); 0.003-10 μM; read-out: IC50 hTRPV5
T3 construct: expressed in transfected cells; host or cells: HEK293 (transient)
Method: as §1, §2, §3, §4

Hepatocytes [1] = assay: Hepatocytes predicted clearance, rat
Hepatocytes [2] = assay: Hepatocytes predicted clearance, dog

T2 sequence (Q9HCF6 whole entry): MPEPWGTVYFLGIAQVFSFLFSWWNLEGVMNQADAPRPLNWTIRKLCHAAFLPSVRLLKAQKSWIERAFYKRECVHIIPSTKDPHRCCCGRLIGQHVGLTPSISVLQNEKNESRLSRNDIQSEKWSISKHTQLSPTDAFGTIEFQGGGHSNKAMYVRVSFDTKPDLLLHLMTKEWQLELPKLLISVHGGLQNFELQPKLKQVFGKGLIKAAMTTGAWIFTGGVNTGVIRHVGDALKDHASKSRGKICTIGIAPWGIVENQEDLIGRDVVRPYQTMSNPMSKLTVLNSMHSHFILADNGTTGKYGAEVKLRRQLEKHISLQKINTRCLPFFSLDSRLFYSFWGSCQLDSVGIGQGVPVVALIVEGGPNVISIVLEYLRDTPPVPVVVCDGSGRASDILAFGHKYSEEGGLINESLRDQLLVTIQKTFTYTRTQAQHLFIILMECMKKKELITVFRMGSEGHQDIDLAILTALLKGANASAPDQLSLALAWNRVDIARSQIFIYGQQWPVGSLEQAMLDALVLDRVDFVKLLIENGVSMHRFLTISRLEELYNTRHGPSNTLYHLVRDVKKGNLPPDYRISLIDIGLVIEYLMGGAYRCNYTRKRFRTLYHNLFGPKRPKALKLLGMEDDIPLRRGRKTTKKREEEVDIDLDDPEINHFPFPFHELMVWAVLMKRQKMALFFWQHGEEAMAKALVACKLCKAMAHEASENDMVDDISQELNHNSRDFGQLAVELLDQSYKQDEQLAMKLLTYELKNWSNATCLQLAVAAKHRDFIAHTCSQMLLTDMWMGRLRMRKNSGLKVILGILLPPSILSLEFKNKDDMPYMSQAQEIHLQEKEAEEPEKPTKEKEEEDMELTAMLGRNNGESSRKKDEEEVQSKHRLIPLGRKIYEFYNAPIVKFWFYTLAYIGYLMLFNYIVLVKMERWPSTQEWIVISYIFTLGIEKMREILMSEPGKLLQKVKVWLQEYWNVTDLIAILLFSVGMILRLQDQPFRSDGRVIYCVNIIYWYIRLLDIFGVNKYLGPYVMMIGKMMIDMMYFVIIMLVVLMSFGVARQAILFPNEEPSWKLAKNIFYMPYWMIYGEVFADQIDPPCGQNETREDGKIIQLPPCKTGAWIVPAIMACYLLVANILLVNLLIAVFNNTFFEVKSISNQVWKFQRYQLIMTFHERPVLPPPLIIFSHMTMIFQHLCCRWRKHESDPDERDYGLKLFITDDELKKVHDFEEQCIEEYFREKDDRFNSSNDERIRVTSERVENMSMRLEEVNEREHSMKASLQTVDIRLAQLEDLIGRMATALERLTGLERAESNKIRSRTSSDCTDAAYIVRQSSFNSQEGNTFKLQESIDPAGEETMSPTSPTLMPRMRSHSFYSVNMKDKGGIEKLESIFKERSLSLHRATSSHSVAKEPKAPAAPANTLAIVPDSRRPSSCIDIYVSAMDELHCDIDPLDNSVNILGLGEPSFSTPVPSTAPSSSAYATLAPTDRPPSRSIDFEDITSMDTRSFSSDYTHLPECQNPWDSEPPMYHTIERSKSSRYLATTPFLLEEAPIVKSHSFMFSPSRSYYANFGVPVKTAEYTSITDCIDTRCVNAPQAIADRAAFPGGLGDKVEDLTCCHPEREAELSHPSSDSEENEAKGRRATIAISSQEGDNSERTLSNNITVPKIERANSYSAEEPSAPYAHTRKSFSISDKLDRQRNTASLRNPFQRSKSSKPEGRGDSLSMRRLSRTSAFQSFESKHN
T3 sequence (Q9NQA5 whole entry): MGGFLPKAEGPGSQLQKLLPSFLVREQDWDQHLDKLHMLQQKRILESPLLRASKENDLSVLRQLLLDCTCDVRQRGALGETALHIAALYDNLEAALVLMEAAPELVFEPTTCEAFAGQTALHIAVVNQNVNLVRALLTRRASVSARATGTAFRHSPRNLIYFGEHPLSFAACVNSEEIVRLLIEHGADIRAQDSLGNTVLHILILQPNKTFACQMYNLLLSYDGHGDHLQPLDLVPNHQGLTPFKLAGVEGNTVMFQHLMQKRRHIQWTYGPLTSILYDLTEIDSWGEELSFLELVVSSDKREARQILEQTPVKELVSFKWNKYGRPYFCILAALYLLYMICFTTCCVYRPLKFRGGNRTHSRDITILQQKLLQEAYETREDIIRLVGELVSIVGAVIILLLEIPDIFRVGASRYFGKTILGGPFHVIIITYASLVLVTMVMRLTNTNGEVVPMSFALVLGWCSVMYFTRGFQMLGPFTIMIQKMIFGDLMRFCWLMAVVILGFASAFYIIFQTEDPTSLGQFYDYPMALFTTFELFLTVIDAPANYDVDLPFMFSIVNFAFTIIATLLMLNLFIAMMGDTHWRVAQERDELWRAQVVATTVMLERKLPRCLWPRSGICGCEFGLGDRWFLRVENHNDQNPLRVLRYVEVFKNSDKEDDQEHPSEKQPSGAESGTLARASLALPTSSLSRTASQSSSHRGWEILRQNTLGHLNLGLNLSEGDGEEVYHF

With `CC(C)(O)c1cnc(N2C[C@@]3(CC[C@@H](F)[C@](C)(Cn4cnc5ccc(C#N)cc54)C3)OC2=O)cn1` (single isomer, unassigned) [Example 5] as the compound, how does the EC50 (TRPC4 channels; agonist mode, vs EMAX of (−)-Englerin A 30 μM, read-out: EC50 hTRPC4) read?
The EC50 was > 10 µM.

What about the IC50 (TRPC4 channels; antagonist mode, activated with 0.5 μM (−)-Englerin A, 0.003-10 μM, read-out: IC50 hTRPC4) of the same compound?
Its IC50 is > 1 µM.

What about the EC50 (TRPM3 channels; agonist mode, vs EMAX of pregnenolone 100 μM, read-out: EC50 hTRPM3) of the same compound?
Its EC50 is > 10 µM.

And the IC50 (TRPM3 channels; antagonist mode, activated with pregnenolone 30 μM, 0.003-10 μM, read-out: IC50 hTRPM3)?
Its IC50 is > 10 µM.

And the IC50 (TRPV5 channels)?
The IC50 was > 10 µM.

What about the “Hepatocytes predicted clearance in rat” value (Hepatocytes [1]) of the same compound?
The value was 7.67 mL/min/kg.

What about the “Hepatocytes predicted clearance in dog” value (Hepatocytes [2]) of the same compound?
The value was 11 mL/min/kg.
